# Measurements from patent US11426389B2, “Compositions and methods for promoting hematopoietic stem cell regeneration” (priority 2017, dated 2022).
# Experiments:
# [1] = test system: ShCamkk2 M1 cells; type: cell-based
# Protocol: FIG. 6A-6F. CaMKK2 couples radiation signaling with the AMPK anti-proliferative pathway. HSPC (KL+KSL) were isolated from WT and Camkk2 null (KO) mice and irradiated in vitro with 400 cGy or left non-irradiated. Cells were then cultured for 1-h in regular medium. Protein expression was normalized by actin and expressed as fold change over basal (non-irradiated WT HSPC), and is reported on the top of each lane. (A) Immunoblots of CaMKK2, phospho-CaMK1 (pCaMK1) and actin. (B) Immunoblots of Tp53, phosphorylated AMPK and S6rp (pAMPK and pS6rp, respectively). (C-E) M1 myeloid progenitor cells were transduced with lentiviral vectors expressing a short hairpin sequence for silencing Camkk2 or a control sequence (ShCamkk2 and Ctrl, respectively). Ctrl and ShCamkk2 M1 cells were then irradiated or left non-irradiated. One-hour after irradiation, M1 cell protein expression was assessed by immunoblotting. (C) Expression of CaMKK2 and actin. […] Cell number was determined using a colorimetric assay, and the results are expressed as fold change of non-irradiated cells cultured in the absence of AICAR. […]
# To determine the functional effects of Camkk2 deficiency in M1 cells, control and ShCamkk2 M1 cells were exposed to 300 cGy with or without a cell permeable AMPK agonist and the number of live M1 cells were determined 24 h after irradiation.
# [2] = test system: 900 cGy TBI wild-type mice; test: Survival of lethally irradiated (900 cGy TBI, LD100/15) wild-type mice treated with STO-609; type: in vivo; conditions: 10 μM/kg on days 1, 2 and 3 post-TBI, intravenous, vs vehicle, n=10 per group
# Protocol: (§1) FIGS. 7A-7D. Pharmacologic inhibition of CaMKK2 enhances hematopoietic regeneration in vivo. Treatment with STO-609, a CaMKK2 inhibitor, mitigates the acute hematopoietic radiation syndrome. (A) Scheme of irradiation and STO-609 treatment in wild type mice. (B) Survival of 900 cGy TBI wild-type mice treated with vehicle or STO-609 (n=10 per group). Wild-type mice were irradiated with 500 cGy TBI and were then treated with STO-609 or vehicle after 24 h. Nine days after TBI, the mice were killed and bones were removed. The BM cells were counted and stained to identify HSPC (BMC). (C) Representative staining and gating strategy. (D) Absolute number of BMC and HSPC (upper and lower graph, respectively). The results are expressed as the fold changes over the absolute number of cells recovered form vehicle-treated wild type mice, and are normalized for one femur. Two independent experiments have been combined (total number of mice-9 per group). Bars graph reports mean±S.E.M. *P-value<0.05, **P-value<0.01/
# (§2) CaMKK2-EGFP transgenic reporter mice were used. Radiation was delivered by a Shepherd Cs^137γ-irradiator at a dose rate of approximately 600 cGy per min. […]
# (§3) It was hypothesized that pharmacologic inhibition of CaMKK2 increases survival and HSPC recovery following TBI. […] Next, the effects of STO-609 treatment on HSPC of mice receiving 500 cGy TBI were evaluated. […]
# [3] = test system: HSPC; test: Bone marrow cell and HSPC recovery in 500 cGy TBI wild-type mice treated with STO-609; type: in vivo; conditions: 9 days after TBI, vs vehicle-treated mice
# Protocol: as §1, §2, §3
Structure (SMILES),"cell death ([1]; M1 cells, following radiation or AICAR treatment (data not shown))","number of live M1 cells (proliferation) after irradiation ([1]; ShCamkk2 M1 cells, 300 cGy, 24 h, AICAR 100 μM)",survival following TBI [2],HSPC in the BM [3],total BM cells in the BM [3]
"NC(=O)c1ncn([C@@H]2O[C@H](CO)[C@@H](O)[C@H]2O)c1N [AICAR, 5-aminoimidazole-4-carboxamide 1-β-d-ribofuranoside]",no increase in cell death,reverted the refractory phenotype of ShCamkk2 M1 cells,,,
"O=C(O)c1ccc2c3c1cccc3c(=O)n1c3ccccc3nc21 [STO-609, 7H-benzimidazo(2,1-a)benz(de)isoquinoline-7-one-3-carboxylic acid]",,,significantly prolonged survival,More,More total BM cells
